Measurements: patent US12371428B2 (Exelixis, Inc., priority 2019, dated 2025)
Where a name gives a salt, the structure may show the parent alone.

Columns and labels:
[1] = target: Human MET (residues 956-1390) (Homo sapiens (Human), UniProt P08581); test: Human Met kinase assay, HTRF KinEase (Example D-2); assay type: biochemical; details: protocol of Example D-2; read-out: c-Met IC50
Outline: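 IC50 values come from a 4-parameter logistic fit of the […] fluorescence ratio, set between DMSO (100%) and reference compound at 1 μM (0%). Reactions held MET 956-1390 at 0.1 ng/well, ATP at Km, biotinylated peptide, 5 mM MgCl2, 1 mM MnCl2, 1 mM DTT and 3% DMSO, and ran 40 min at room temperature before streptavidin-XL665/Eu-antibody detection.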

[2] = target: Met (phospho-Met, HGF-stimulated PC-3 prostate cancer cells) (Homo sapiens (Human), UniProt P08581); test: Met autophosphorylation ELISA in PC-3 cells (Example F); assay type: cell-based; details: cellular activity; Met autophosphorylation ELISA in PC-3 cells; read-out: c-Met IC50
Chain of Met (phospho-Met, HGF-stimulated PC-3 prostate cancer cells) (P08581 25-1390): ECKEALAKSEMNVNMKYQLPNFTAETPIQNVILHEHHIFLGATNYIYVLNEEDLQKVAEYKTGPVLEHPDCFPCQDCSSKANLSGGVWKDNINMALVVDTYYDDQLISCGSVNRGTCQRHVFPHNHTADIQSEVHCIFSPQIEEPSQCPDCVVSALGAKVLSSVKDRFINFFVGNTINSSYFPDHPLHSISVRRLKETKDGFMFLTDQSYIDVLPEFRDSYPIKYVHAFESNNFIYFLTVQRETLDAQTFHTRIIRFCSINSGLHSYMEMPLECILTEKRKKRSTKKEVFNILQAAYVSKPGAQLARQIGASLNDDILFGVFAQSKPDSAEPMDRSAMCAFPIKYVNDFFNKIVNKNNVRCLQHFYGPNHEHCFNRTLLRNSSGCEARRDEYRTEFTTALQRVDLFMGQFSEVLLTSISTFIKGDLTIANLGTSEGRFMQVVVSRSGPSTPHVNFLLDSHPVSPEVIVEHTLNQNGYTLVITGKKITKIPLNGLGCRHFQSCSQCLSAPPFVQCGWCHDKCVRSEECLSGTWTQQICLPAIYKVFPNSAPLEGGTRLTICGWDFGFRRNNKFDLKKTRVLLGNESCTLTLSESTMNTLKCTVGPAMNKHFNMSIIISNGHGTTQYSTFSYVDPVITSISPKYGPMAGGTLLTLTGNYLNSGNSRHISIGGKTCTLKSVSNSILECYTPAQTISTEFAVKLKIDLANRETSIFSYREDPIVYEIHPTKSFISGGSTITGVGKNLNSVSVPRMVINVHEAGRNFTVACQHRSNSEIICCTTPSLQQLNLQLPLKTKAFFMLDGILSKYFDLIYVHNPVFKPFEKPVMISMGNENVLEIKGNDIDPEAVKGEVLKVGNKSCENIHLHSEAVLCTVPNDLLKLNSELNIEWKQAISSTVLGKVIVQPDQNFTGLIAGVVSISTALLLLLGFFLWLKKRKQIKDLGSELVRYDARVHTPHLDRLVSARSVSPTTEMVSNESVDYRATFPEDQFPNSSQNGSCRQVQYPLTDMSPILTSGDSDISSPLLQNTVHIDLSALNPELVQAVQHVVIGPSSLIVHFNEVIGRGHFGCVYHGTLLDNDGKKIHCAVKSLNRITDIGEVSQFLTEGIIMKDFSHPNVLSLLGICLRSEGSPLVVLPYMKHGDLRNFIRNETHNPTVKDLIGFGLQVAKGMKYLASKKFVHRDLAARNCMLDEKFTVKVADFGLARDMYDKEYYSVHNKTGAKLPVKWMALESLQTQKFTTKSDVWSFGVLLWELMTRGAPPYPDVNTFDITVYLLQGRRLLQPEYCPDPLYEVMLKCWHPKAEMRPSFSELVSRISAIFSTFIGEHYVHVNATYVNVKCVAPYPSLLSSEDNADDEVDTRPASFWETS
Outline: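 Serum-starved (3 h) PC-3 cells were treated 1 h with compounds (8-point curve, 0.3% DMSO), then stimulated with 100 ng/mL human HGF for 10 min. Lysate phospho-Met (panTyr) was measured by sandwich ELISA, normalised to DMSO and reference-inhibitor controls. IC50 came from 4-parameter logistic fit.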

[3] = target: AXL (phospho-AXL, Gas6-stimulated A-172 glioblastoma cells) (Homo sapiens (Human), UniProt P30530); test: AXL autophosphorylation ELISA in A-172 cells (Example E); assay type: cell-based; details: cellular activity; AXL autophosphorylation ELISA in A-172 cells; read-out: Axl IC50
Chain of AXL (phospho-AXL, Gas6-stimulated A-172 glioblastoma cells) (P30530 26-894): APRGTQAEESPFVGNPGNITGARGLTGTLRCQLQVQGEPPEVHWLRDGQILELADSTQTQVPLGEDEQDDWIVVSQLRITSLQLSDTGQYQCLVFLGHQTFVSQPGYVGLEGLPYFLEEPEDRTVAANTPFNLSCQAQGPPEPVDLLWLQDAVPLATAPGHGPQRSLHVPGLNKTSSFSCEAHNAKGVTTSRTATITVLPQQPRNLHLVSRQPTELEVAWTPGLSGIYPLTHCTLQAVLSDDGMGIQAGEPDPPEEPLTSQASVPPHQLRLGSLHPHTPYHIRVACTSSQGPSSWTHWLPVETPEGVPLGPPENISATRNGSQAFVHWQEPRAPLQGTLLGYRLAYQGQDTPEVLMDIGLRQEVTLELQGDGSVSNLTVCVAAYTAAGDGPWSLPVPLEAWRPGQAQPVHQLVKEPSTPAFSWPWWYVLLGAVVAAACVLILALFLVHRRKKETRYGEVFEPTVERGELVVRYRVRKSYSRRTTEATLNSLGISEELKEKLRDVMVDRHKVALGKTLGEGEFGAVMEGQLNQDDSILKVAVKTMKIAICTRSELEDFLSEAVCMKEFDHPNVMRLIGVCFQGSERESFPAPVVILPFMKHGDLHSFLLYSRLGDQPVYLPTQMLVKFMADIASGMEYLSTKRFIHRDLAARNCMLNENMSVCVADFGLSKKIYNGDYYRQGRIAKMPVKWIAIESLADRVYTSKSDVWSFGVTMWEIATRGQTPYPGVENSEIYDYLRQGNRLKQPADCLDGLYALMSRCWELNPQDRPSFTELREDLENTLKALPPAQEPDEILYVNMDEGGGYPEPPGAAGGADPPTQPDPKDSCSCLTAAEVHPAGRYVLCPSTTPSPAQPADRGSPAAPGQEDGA
Outline: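 Phospho-AXL was measured by ELISA in lysates of Gas6-stimulated A-172 cells, starved 24 h in serum-free medium and exposed 1 h to an 8-point compound dilution at 0.3% DMSO.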

Chain of Human MET (residues 956-1390) (P08581 956-1390): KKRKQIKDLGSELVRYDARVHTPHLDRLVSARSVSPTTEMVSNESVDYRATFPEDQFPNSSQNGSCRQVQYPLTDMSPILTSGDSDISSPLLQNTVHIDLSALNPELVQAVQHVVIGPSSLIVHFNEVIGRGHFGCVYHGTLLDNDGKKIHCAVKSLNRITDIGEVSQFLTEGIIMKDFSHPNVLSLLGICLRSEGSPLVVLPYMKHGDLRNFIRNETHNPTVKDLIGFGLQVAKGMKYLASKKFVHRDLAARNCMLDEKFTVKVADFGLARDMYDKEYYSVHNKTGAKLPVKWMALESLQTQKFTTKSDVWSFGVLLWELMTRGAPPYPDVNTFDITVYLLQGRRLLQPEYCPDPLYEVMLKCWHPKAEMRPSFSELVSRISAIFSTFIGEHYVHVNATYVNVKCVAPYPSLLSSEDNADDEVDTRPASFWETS

| Structure (SMILES) | IC50 [1] [nM] | IC50 [2] [nM] | IC50 [3] [nM] |
| --- | --- | --- | --- |
| Cc1nc2c(Oc3ccc(NC(=O)c4cn(C(C)C)c(C)c(-c5ccc(F)cc5)c4=O)cc3)ccnc2cc1-c1cnn(C(F)F)c1 [Compound 612, N-[4-[[7-[1-(Difluoromethyl)pyrazol-4-yl]-6-methyl-1,5-naphthyridin-4-yl]oxy]phenyl]-5-(4-fluorophenyl)-6-methyl-4-oxo-1-propan-2-ylpyridine-3-carboxamide hydrochloride] | < 100 | 100 to 300 | – |
| Cc1nc2c(Oc3ccc(NC(=O)c4cn(C(C)C)c(C)c(-c5ccc(F)cc5)c4=O)cc3)ccnc2cc1-c1cccnc1 [Compound 613, 5-(4-Fluorophenyl)-6-methyl-N-[4-[(6-methyl-7-pyridin-3-yl-1,5-naphthyridin-4-yl)oxy]phenyl]-4-oxo-1-propan-2-ylpyridine-3-carboxamide hydrochloride] | < 100 | < 100 | – |
| Cc1nc2c(Oc3ccc(NC(=O)c4cn(C(C)C)c(C)c(-c5ccc(F)cc5)c4=O)cc3F)ccnc2cc1-c1cnn(C(F)F)c1 [Compound 614, N-[4-[[7-[1-(Difluoromethyl)pyrazol-4-yl]-6-methyl-1,5-naphthyridin-4-yl]oxy]-3-fluorophenyl]-5-(4-fluorophenyl)-6-methyl-4-oxo-1-propan-2-ylpyridine-3-carboxamide hydrochloride] | < 100 | 100 to 300 | – |
| Cc1nc2c(Oc3ccc(NC(=O)c4cnc(C)c(-c5ccc(F)cc5)c4O)cc3F)ccnc2cc1-c1cnn(C(F)F)c1 [Compound 615, N-[4-[[7-[1-(Difluoromethyl)pyrazol-4-yl]-6-methyl-1,5-naphthyridin-4-yl]oxy]-3-fluorophenyl]-5-(4-fluorophenyl)-4-hydroxy-6-methylpyridine-3-carboxamide hydrochloride] | < 100 | < 100 | – |
| Cc1nc2c(Oc3ccc(NC(=O)c4cnc(C)c(-c5ccc(F)cc5)c4O)cc3)ccnc2cc1-c1cccnc1 [Compound 616, 5-(4-Fluorophenyl)-4-hydroxy-6-methyl-N-[4-[(6-methyl-7-pyridin-3-yl-1,5-naphthyridin-4-yl)oxy]phenyl]pyridine-3-carboxamide hydrochloride] | < 100 | > 300 | – |
| Cc1nc2c(Oc3ccc(NC(=O)c4cnc(C)c(-c5ccc(F)cc5)c4O)cc3)ccnc2cc1-c1cnn(C(F)F)c1 [Compound 617, N-[4-[[7-[1-(Difluoromethyl)pyrazol-4-yl]-6-methyl-1,5-naphthyridin-4-yl]oxy]phenyl]-5-(4-fluorophenyl)-4-hydroxy-6-methylpyridine-3-carboxamide hydrochloride] | < 100 | < 100 | – |
| Cc1nc2c(Oc3ccc(NC(=O)c4cnc(C)c(-c5ccc(F)cc5)c4O)cc3F)ccnc2cc1-c1cccnc1 [Compound 618, N-[3-Fluoro-4-[(6-methyl-7-pyridin-3-yl-1,5-naphthyridin-4-yl)oxy]phenyl]-5-(4-fluorophenyl)-4-hydroxy-6-methylpyridine-3-carboxamide hydrochloride] | < 100 | 100 to 300 | – |
| COc1cc2nccc(Oc3ccc(NC(=O)c4cn(CCO)c(C)c(-c5ccc(F)cc5)c4=O)cc3F)c2nc1OC [Compound 619, N-[4-[(6,7-Dimethoxy-1,5-naphthyridin-4-yl)oxy]-3-fluorophenyl]-5-(4-fluorophenyl)-1-(2-hydroxyethyl)-6-methyl-4-oxopyridine-3-carboxamide] | < 100 | < 100 | – |
| Cc1nc2c(Oc3ccc(NC(=O)c4cn(C(C)C)c(C)c(-c5ccc(F)cc5)c4=O)cc3F)ccnc2cc1-c1cccnc1 [Compound 620, N-[3-Fluoro-4-[(6-methyl-7-pyridin-3-yl-1,5-naphthyridin-4-yl)oxy]phenyl]-5-(4-fluorophenyl)-6-methyl-4-oxo-1-propan-2-ylpyridine-3-carboxamide] | < 100 | 100 to 300 | – |
| COc1cc2ncnc(Oc3ccc(NC(=O)c4cn(C(C)C)cc(-c5ccc(F)cc5)c4=O)cc3F)c2nc1OC [Compound 636, N-[4-(6,7-dimethoxypyrido[3,2-d]pyrimidin-4-yl)oxy-3-fluorophenyl]-5-(4-fluorophenyl)-4-oxo-1-propan-2-ylpyridine-3-carboxamide] | < 100 | < 100 | – |
| COc1cc2ncnc(Oc3ccc(NC(=O)c4cn(-c5cnn(C)c5)cc(-c5ccc(F)cc5)c4=O)cc3F)c2nc1OC [Compound 637, N-[4-(6,7-dimethoxyprido[3,2-d]pyrimidin-4-yl)oxy-3-fluorophenyl]-5-(4-fluorophenyl)-1-(1-methylpyrazol-4-yl)-4-oxopyridine-3-carboxamide] | < 100 | < 100 | – |
| COc1cc2c(Oc3ccc(NC(=O)c4cnc(C)c(-c5ccc(F)cc5)c4O)cc3F)ccnc2cn1 [Compound 639, N-[3-fluoro-4-[(6-methoxy-1,7-naphthyridin-4-yl)oxy]phenyl]-5-(4-fluorophenyl)-4-hydroxy-6-methylpyridine-3-carboxamide] | < 100 | < 100 | – |
| COc1cc2c(Oc3ccc(NC(=O)c4cn(C5CC5)c(C)c(-c5ccc(F)cc5)c4=O)cc3F)ccnc2cn1 [Compound 640, 1-cyclopropyl-N-[3-fluoro-4-[(6-methoxy-1,7-naphthyridin-4-yl)oxy]phenyl]-5-(4-fluorophenyl)-6-methyl-4-oxopyridine-3-carboxamide] | < 100 | < 100 | – |
| Cc1ncc(C(=O)Nc2ccc(Oc3ccnc4cnc(Cl)cc34)c(F)c2)c(O)c1-c1ccc(F)cc1 [Compound 641, N-[4-[(6-chloro-1,7-naphthyridin-4-yl)oxy]-3-fluorophenyl]-5-(4-fluorophenyl)-4-hydroxy-6-methylpyridine-3-carboxamide] | 100 to 300 | < 100 | – |
| Cc1ncc(C(=O)Nc2ccc(Oc3ccnc4cnccc34)c(F)c2)c(O)c1-c1ccc(F)cc1 [Compound 642, N-[3-fluoro-4-(1,7-naphthyridin-4-yloxy)phenyl]-5-(4-fluorophenyl)-4-hydroxy-6-methylpyridine-3-carboxamide] | < 100 | < 100 | < 100 |
| Cc1ncc(C(=O)Nc2ccc(Oc3ccnc4cnccc34)cc2)c(O)c1-c1ccc(F)cc1 [Compound 643, 5-(4-fluorophenyl)-4-hydroxy-6-methyl-N-[4-(1,7-naphthyridin-4-yloxy)phenyl]pyridine-3-carboxamide] | < 100 | < 100 | – |
| COc1cc2c(Oc3ccc(NC(=O)c4cnc(C)c(-c5ccc(F)cc5)c4O)cc3)ccnc2cn1 [Compound 644, 5-(4-fluorophenyl)-4-hydroxy-N-[4-[(6-methoxy-1,7-naphthyridin-4-yl)oxy]phenyl]-6-methylpyridine-3-carboxamide] | < 100 | < 100 | – |
| Cc1cc2c(Oc3ccc(NC(=O)c4cnc(C)c(-c5ccc(F)cc5)c4O)cc3F)ccnc2cn1 [Compound 645, N-[3-fluoro-4-[(6-methyl-1,7-naphthyridin-4-yl)oxy]phenyl]-5-(4-fluorophenyl)-4-hydroxy-6-methylpyridine-3-carboxamide] | < 100 | < 100 | – |
